The record followed here is BindingDB's records for doi:10.1016/j.bioorg.2016.09.007 (Shaoyang University, 2016).

What is called IC50 is the concentration that gives 50% inhibition. Low readings indicate higher potency, high ones lower potency.

This experiment deals with T1, Polyphenol oxidase 1 [61-568] (Agaricus bisporus, UniProt Q00024).
T1 construct: 61-568
T1 sequence (Q00024 whole entry): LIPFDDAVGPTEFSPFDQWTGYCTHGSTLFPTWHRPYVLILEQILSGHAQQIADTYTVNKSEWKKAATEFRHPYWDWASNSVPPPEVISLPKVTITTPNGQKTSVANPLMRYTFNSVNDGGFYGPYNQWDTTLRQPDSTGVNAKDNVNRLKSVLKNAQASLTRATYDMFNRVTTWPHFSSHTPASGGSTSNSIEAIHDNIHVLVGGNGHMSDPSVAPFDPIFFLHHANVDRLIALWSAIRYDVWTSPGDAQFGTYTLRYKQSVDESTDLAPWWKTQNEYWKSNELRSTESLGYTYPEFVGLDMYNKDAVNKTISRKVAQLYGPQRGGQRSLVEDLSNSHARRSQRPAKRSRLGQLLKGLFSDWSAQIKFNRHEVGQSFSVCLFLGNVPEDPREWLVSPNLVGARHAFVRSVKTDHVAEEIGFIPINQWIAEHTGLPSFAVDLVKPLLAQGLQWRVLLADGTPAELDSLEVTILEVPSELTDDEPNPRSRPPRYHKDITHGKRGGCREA
As to the kind of experiment: Tyrosinase Activity Assay. Particulars: pH 6.8. As for the experimental part: Briefly, 1,3,4-thiadiazole derivatives were tested for diphenolase inhibitory activity of tyrosinase using L-DOPA (dihydroxyphenylalanine) as substrate. All the compounds were dissolved in DMSO and its final concentration in the reaction mixture was 2.0%. Thirty units of mushroom tyrosinase (0.5 mg/ml) were first pre-incubated with the compounds, in 50 mM phosphate buffer (pH 6.8), for 10 min at 25 °C. Then the L-DOPA (0.5 mM) was added to the reaction mixture and the enzyme reaction was continuously monitored by measuring the change in absorbance at 475 nm of formation of the DOPA chrome for 1 min.
As for `COc1cc(OC)c(C=Nc2nnc(S)s2)c(OC)c1` [2-((2,4,6-Trimethoxybenzylidene)amino)-5-mercapto-1,3,4-thiadiazole (16)], the IC50 amounted to 907 nM. With `Fc1ccccc1C=Nc1nnc(S)s1` [2-((2-Fluorobenzylidene)amino)-5-mercapto-1,3,4-thiadiazole (2)] the figure was 765 nM; with `COc1ccccc1C=Nc1nnc(S)s1` [2-((2-Methoxybenzylidene)amino)-5-mercapto-1,3,4-thiadiazole (10)], 733 nM. For `O=[N+]([O-])c1ccccc1C=Nc1nnc(S)s1` [2-((2-Nitrobenzylidene)amino)-5-mercapto-1,3,4-thiadiazole (9)], the IC50 came to 671 nM. With `Sc1nnc(N=Cc2ccc(Cl)c(Cl)c2)s1` [2-((3,4-Dichlorobenzylidene)amino)-5-mercapto-1,3,4-thiadiazole (5)] the figure was 3620 nM. To `COc1cc(C=Nc2nnc(S)s2)cc(OC)c1` [2-((3,5-Dimethoxybenzylidene)amino)-5-mercapto-1,3,4-thiadiazole (11)] belongs 5350 nM. `Sc1nnc(N=Cc2cccc(Cl)c2)s1` [2-((3-Chlorobenzylidene)amino)-5-mercapto-1,3,4-thiadiazole (3)] registered an IC50 of 4750 nM. In the case of `CC(C)(C)c1ccc(C=Nc2nnc(S)s2)cc1` [2-((4-(Tert-butyl)benzylidene)amino)-5-mercapto-1,3,4-thiadiazole (8)], the IC50 was determined as 1390 nM. Consider `Sc1nnc(N=Cc2ccc(Cl)cc2)s1` [2-((4-Chlorobenzylidene)amino)-5-mercapto-1,3,4-thiadiazole (4)], for which half-maximal inhibition (IC50) required 2460 nM. `Oc1ccc(Cl)cc1C=Nc1nnc(SCc2ccccc2)s1` [2-(((5-(Benzylthio)-1,3,4-thiadiazol-2-yl)imino)methyl)-4-chlorophenol (17)] had an IC50 of 247000 nM.

Regarding `Oc1ccccc1C=Nc1nnc(S)s1` [2-(((5-Mercapto-1,3,4-thiadiazol-2-yl)imino)methyl)phenol (12)], 785 nM corresponded to half-maximal inhibition (IC50). To `Sc1nnc(N=Cc2ccccc2)s1` [2-(Benzylideneamino)-5-mercapto-1,3,4-thiadiazole (1)] belongs 49200 nM; to `COc1cc(C=Nc2nnc(S)s2)cc(OC)c1O` [4-(((5-Mercapto-1,3,4-thiadiazol-2-yl)imino)methyl)-2,6-dimethoxyphenol (15)], 473 nM; to `COc1cc(C=Nc2nnc(S)s2)ccc1O` [4-(((5-Mercapto-1,3,4-thiadiazol-2-yl)imino)methyl)-2-methoxyphenol (14)], 36 nM. With `Oc1ccc(C=Nc2nnc(S)s2)c(O)c1` [4-(((5-Mercapto-1,3,4-thiadiazol-2-yl)imino)methyl)benzene-1,3-diol (13)] the figure was 255 nM; with `Oc1ccc(Br)cc1C=Nc1nnc(S)s1` [4-Bromo-2-(((5-mercapto-1,3,4-thiadiazol-2-yl)imino)methyl)phenol (7)], 1970 nM; with `Oc1ccc(Cl)cc1C=Nc1nnc(S)s1` [4-Chloro-2-(((5-mercapto-1,3,4-thiadiazol-2-yl)imino)methyl)phenol (6)], 1720 nM.
